In patent US20080138317A1, “Use of biocompatible amphiphilic polymers as an anti-inflammatory agent” (priority 2004, published 2008):

System: TNF-α release from monocytes
Assay type: cell-based
Details: supernatant of human monocytes after overnight incubation; okadaic acid (OA) 50 nM; troglitazone 30 μm; MGSA polymers 50%; ELISA
Procedure: Human monocytes were isolated from freshly collected buffy coat preparations of whole human blood. Briefly, whole blood was diluted 1:1.33 with sterile phosphate buffered solution (PBS) and layered over Histopaque, which was then centrifuged for 30 minutes at 1500 rpm at room temperature. The interface was harvested and washed with PBS, followed by another centrifugation at 1500 rpm for 10 minutes. A final wash was performed in RPMI 1640 with 10% fetal bovine serum (FBS). Cells were counted using a hemacytometer and seeded at 2.4×10^6 cells/300 μl into a 48-well tissue culture treated plate. Cells were incubated for 1 hour at 37° C., 5% CO2 and non-adherent cells were removed with a PBS wash. 300 μl of RPMI 1640 with 10% FBS was added back to the cells along with the various test conditions; cells in media alone, with DMSO (the vehicle used to reconstitue okadaic acid and troglitazone), with okadaic acid (OA, 50 nM), with OA and troglitazone (30 μm), with OA and monostearyl glyceride succinic anhydride (MGSA)-liquid (3305-15, 50%), and with OA and MGSA-solid (2804-60, 50%). The supernatants were collected after overnight incubation at 37° C., 5% CO2 and later analyzed for TNF-α by ELISA.

Compound	TNF-α
Cc1c(C)c2c(c(C)c1O)CCC(C)(COc1ccc(CC3SC(=O)NC3=O)cc1)O2 (centres unmarked) [Troglitazone]	422.554 ng/mL
C=C1[C@@H](O)[C@@H]2O[C@]3(CC[C@H](/C=C/[C@@H](C)[C@@H]4CC(C)=C[C@@]5(O[C@H](C[C@@](C)(O)C(=O)O)CC[C@H]5O)O4)O3)CC[C@H]2O[C@@H]1[C@@H](O)C[C@H](C)[C@H]1O[C@@]2(CCCCO2)CC[C@H]1C [Okadaic Acid, okadaic acid]	575.765 ng/mL
